Assays:
MCF7 = test: Breast Cancer Cell Proliferation Assay (MCF-7), Cell Titer-Glo; format: cell-based; conditions: Homo sapiens, MCF7 cells, 5 days of compound exposure
Method in brief: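 MCF7 cells in phenol red-free DMEM/F12 with charcoal-stripped FBS exposed 5 days to 10-point dilutions (10–0.000005 μM final), 17β-estradiol as control. Viability by CellTiter-Glo luminescence, background-subtracted and expressed relative to estrogen-only treated cells; day-1 pretreatment wells plated.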

[1] = Pharmacokinetic Determination (Mouse PK); format: in vivo, female CD-1 mice; conditions: female; for Kp at 2 h: CD-1, PO 10.0 mg/kg, Brain concentration vs plasma concentration at 2 hours post dosing, read-out: B/P ratio; for AUC(0-t) / clearance / half-life / Vd / bioavailability / Cmax / Tmax: CD-1, plasma; for Vd: read-out: Vdss; for bioavailability: PO 10.0 mg/kg vs IV 3.0 mg/kg
Method: Pharmacokinetic Determination
Grouping female CD-1 mice weighing 20-30 g randomly to three groups; one group was administered with test compound at a dose of 3.0 mg/kg by intravenous injection, the other two groups were administered with test compound at a dose of 10.0 mg/kg by oral. The formulation for IV groups is DMSO/PEG400/30% HP-β-CD (5/20/75) and the formulation for PO groups is 25% HP-β-CD in 25 mM citrate buffer (pH3.0). After administering, blood samples of intravenous injection group were collected at time points of predose, 0.0833, 0.25, 0.5, 1, 2, 4, 8, 12 and 24 h; blood samples of oral group were collected at time points of predose, 0.25, 0.5, 1, 2, 4, 8, 12, and 24 h. Both blood samples and brain samples were collected at 2 hours post dosing for the second PO group. Standard curve was plotted based on concentrations of the samples in a suitable range, the concentrations of test compounds in plasma samples and brain samples were determined by using LC-MS/MS. Pharmacokinetic parameters were calculated according to drug concentration-time curve using a noncompartmental method by WinNonLin (Phoenix™, version 6.1) or other similar software.

Compound	IC50 (MCF7; MCF7, 120 h)	Kp at 2 h [1]	AUC(0-t) ([1]; IV, 3.0 mg/kg)	clearance ([1]; IV, 3.0 mg/kg)	half-life ([1]; IV, 3.0 mg/kg)	Vd ([1]; IV, 3.0 mg/kg)	bioavailability [1]	AUC(0-t) ([1]; PO, 10.0 mg/kg)	Cmax ([1]; PO, 10.0 mg/kg)	Tmax ([1]; PO, 10.0 mg/kg)	half-life ([1]; PO, 10.0 mg/kg)	IC50 (MCF7; 120 h)
C[C@@H]1Cc2c([nH]c3ccccc23)[C@@H](c2c(F)cc(O[C@@H]3CCN(CCCF)C3)cc2F)N1C12CC(C1)C2 (single isomer, unassigned) [Compound 5]	25 to 250 nM	7.07	2.93 µM·h	30.2 mL/min/kg	9.1 h	16.7 L/kg	49.5%	4.84 µM·h	610 nM	1 h	9.4 h	–
C[C@@H]1Cc2c([nH]c3ccccc23)[C@@H](c2ccc(O[C@H]3CCN(CCCF)C3)nc2)N1C12CC(C1)C2 (single isomer, unassigned) [Compound 10]	≤ 25 nM	7.51	1.03 µM·h	101 mL/min/kg	2.19 h	12.8 L/kg	15.3%	0.527 µM·h	178 nM	0.5 h	2.12 h	–
C[C@@H]1Cc2c([nH]c3ccccc23)[C@@H](c2ccc(NC3CN(CCCF)C3)cn2)N1C12CC(C1)C2 [Compound 2, 6-((1S,3R)-2-(bicyclo[1.1.1]pentan-1-yl)-3-methyl-2,3,4,9-tetrahydro-1H-pyrido[3,4-b]indol-1-yl)-N-(1-(3-fluoropropyl)azetidin-3-yl)pyridin-3-amine]	–	2.87	1.74 µM·h	55.8 mL/min/kg	8.78 h	31.9 L/kg	43.3%	2.51 µM·h	358 nM	1 h	7.23 h	≤ 25 nM
C[C@@H]1Cc2c([nH]c3ccccc23)[C@@H](c2c(F)cc(N[C@H]3CCN(CCCF)C3)cc2F)N1C12CC(C1)C2 [Compound 19, (S)—N-(4-((1R,3R)-2-(bicyclo[1.1.1]pentan-1-yl)-3-methyl-2,3,4,9-tetrahydro-1H-pyrido[3,4-b]indol-1-yl)-3,5-difluorophenyl)-1-(3-fluoropropyl)pyrrolidin-3-amine]	≤ 25 nM	12.3	2.15 µM·h	47.6 mL/min/kg	6.58 h	23.2 L/kg	69.8%	5 µM·h	440 nM	1 h	8.5 h	–
C[C@@H]1Cc2c(ccc3[nH]ncc23)[C@@H](c2ccc(NC3CN(CCCF)C3)cn2)N1CC(F)(F)F [AZD9833, reference compound]	≤ 25 nM	0.23	–	–	–	–	–	4.19 µM·h	649 nM	2 h	2.34 h	–
CCCN1CC(Oc2ccc([C@@H]3c4[nH]c5ccccc5c4C[C@@H](C)N3C34CC(C3)C4)cc2)C1 [Compound 39, (1R,3R)-2-(bicyclo[1.1.1]pentan-1-yl)-3-methyl-1-(4-((1-propylazetidin-3-yl)oxy)phenyl)-2,3,4,9-tetrahydro-1H-pyrido[3,4-b]indole]	≤ 25 nM	11.4	1.33 µM·h	85 mL/min/kg	5.13 h	16 L/kg	29.6%	1.31 µM·h	224 nM	0.5 h	3.95 h	–

— patent US11999728B2, “Estrogen receptor modulators” (Recurium IP Holdings, LLC, priority 2020, dated 2024)
